What follows are molecules tested against Histamine H3 receptor (Homo sapiens, UniProt Q9Y5N1) (assay: Displacement of [3H]N-alpha-Methylhistamine from human recombinant H3 receptor expressed in HEK293 cells by competitive binding assay). Details: not given.
Chain of Histamine H3 receptor (Homo sapiens, UniProt Q9Y5N1) (Q9Y5N1 whole entry): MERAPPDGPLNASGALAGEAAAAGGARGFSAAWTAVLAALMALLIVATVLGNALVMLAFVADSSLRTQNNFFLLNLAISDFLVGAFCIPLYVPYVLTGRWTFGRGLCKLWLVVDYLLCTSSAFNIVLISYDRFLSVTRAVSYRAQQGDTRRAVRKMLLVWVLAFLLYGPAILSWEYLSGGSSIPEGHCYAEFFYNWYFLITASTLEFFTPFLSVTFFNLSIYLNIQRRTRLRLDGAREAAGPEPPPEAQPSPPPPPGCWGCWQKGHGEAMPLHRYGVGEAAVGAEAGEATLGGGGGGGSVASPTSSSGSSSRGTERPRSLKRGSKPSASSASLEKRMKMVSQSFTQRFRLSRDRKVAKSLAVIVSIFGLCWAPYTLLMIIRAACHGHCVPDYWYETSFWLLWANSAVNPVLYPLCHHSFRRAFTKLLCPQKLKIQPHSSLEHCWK
Assay type: cell-based
In the case of `CCN1CCc2nc(OC3CCN(C4CCC4)CC3)ncc2C1=O`, the IC50 is reported as ≤ 50 nM.

Same assay, conditions: read-out: Ki
With `O=c1cccnn1-c1ccc2nc(N3CC[C@@H](N4CCCCC4)C3)sc2c1` the Ki was < 25 nM.

Same assay, conditions: read-out: pKi (converted)
`O=c1ccn(CCCN2CCCCC2)c(=O)[nH]1` showed a Ki of 7080 nM.
`Cc1c[nH]c(=O)n(Cc2ccc(OCCCN3CCCCC3)cc2)c1=O` gave a Ki of 63.1 nM.
For `Cc1c(C)n(Cc2ccc(OCCCN3CCCCC3)cc2)c(=O)n(C(=O)c2ccccc2)c1=O`, the Ki was 34.7 nM.
`O=C(c1ccccc1)n1c(=O)ccn(Cc2ccc(OCCCN3CCCCC3)cc2)c1=O` gave a Ki of 7.24 nM.
`O=C(c1ccccc1)n1c(=O)ccn(CCCN2CCCCC2)c1=O` showed a Ki of 1150 nM.
With `CC(C)N1CCCN(C(=O)C2CCN(c3ccc(C(F)(F)F)nc3)CC2)CC1` the Ki was 0.126 nM.
`Cc1c(C)n(C(=O)OC(C)(C)C)c(=O)n(Cc2ccc(OCCCN3CCCCC3)cc2)c1=O` gave a Ki of 38 nM.
Work on `O=c1ccn(Cc2ccc(OCCCN3CCCCC3)cc2)c(=O)[nH]1` yielded a Ki of 12.9 nM.
In the case of `CC(C)(C)OC(=O)n1ccc(=O)n(Cc2ccc(OCCCN3CCCCC3)cc2)c1=O`, the Ki is reported as 50.1 nM.
Work on `Cc1cn(C(=O)OC(C)(C)C)c(=O)n(Cc2ccc(OCCCN3CCCCC3)cc2)c1=O` yielded a Ki of 46.8 nM.
`Cc1c(C)n(Cc2ccc(OCCCN3CCCCC3)cc2)c(=O)[nH]c1=O` gave a Ki of 17.8 nM.
`Cc1cn(Cc2ccc(OCCCN3CCCCC3)cc2)c(=O)[nH]c1=O` was tested, and the Ki was 7.08 nM.
Work on `Cc1cn(Cc2ccc(OCCCN3CCCCC3)cc2)c(=O)n(C(=O)c2ccccc2)c1=O` yielded a Ki of 31.6 nM.
In the case of `O=c1cc[nH]c(=O)n1Cc1ccc(OCCCN2CCCCC2)cc1`, the Ki is reported as 28.8 nM.

The molecules below were run against Histamine H3 receptor (Rattus norvegicus, UniProt Q9QYN8) (assay: Binding affinity to rat H3 receptor). Details: not given.
Chain of Histamine H3 receptor (Rattus norvegicus, UniProt Q9QYN8) (Q9QYN8 whole entry): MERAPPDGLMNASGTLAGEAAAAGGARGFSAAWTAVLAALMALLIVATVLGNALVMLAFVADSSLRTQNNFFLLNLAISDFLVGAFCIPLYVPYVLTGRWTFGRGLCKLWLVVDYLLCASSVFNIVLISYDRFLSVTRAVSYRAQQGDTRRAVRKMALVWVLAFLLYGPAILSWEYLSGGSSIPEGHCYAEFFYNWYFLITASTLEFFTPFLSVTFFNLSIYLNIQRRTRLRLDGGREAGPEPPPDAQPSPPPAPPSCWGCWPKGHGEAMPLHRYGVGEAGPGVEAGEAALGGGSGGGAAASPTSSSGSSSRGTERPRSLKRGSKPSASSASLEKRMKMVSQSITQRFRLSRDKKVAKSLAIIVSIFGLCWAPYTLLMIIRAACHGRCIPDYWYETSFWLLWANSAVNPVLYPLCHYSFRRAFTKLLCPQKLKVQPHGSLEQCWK
`C[C@H]1CCCN1CCCOc1ccc(/C(CN2CCCCC2=O)=N/OC(C)(C)C)cc1` was tested, and the Ki was < 100 nM.

Source: ChEMBL document CHEMBL3351512, “Studies on molecular properties prediction and histamine H3 receptor affinities of novel ligands with uracil-based motifs” (Eur J Med Chem, 2014)
